Experimental data from US20110020312A1, “METHODS FOR TREATMENT OF METABOLIC DISORDERS USING EPIMETABOLIC SHIFTERS, MULTIDIMENSIONAL INTRACELLULAR MOLECULES, OR ENVIRONMENTAL INFLUENCERS” (priority 2009, published 2011).

Assays:
[1] = tested on: Lactate Dehydrogenase (LDH); test: Western blot, Lactate Dehydrogenase levels; format: cell-based, human
Protocol: The samples were processed and run on a 4-12% Bis-Tris Novex NuPAGE gel as described above. The gels were run, transferred and stained essentially as described above.
After transfer each blot was dried for 15-20 minutes, activated with methanol for 5 seconds, washed with water for 5 minutes, and TBST for 15 minutes. The blots were blocked for 1 hour with 5% blocking reagent in TBS-T at room temperature and then washed 3 times with TBS-T (1×-15′; 2×5′ each) and probed with the primary antibody for Lactate Dehydrogenase (abcam ab2101; polyclonal) in 5% BSA (at 1:1000 dilutions) by incubation overnight at 4 deg C. with shaking. After the overnight incubation with primary antibody for Lactate Dehydrogenase, the blots were washed 3 times with TBS-T (1×-15′; 2×5′ each) and probed with the secondary antibody (rabbit antigoat; 1:10,000 dilution) for 1 h at room temperature. After 1 h of incubation with secondary antibodies, the blots were washed 3 times with TBS-T (1×-15′; 2×5′ each) and then incubated with ECF reagent for 5 mins and then each blot scanned with 5100 Fuji Laser scanner at 25 uM resolution, 16 bit, green laser, at 400V and at 500 V.
The PACA2 samples were processed and the gels were run, transferred, stained and scanned essentially as described above.
The levels of LDH and PDH were determined by probing the blots successively with primary antibodies for LDH and PDH, essentially as described above.
The above blots were stripped by incubating for 30 minutes with methanol, followed by two 10 minute washes with TBS-T, then 30 minutes of incubation with Stripping buffer at 50 deg C., and followed by two washes with 100 ml or more of TBS-T for 30′ each. The blots were scanned in laser scanner to check for complete stripping. The blots were activated with methanol for 5 seconds, washed with water for 5 minutes, and TBST for 15 minutes. The blots were blocked for 1 hour with 5% blocking reagent in TBS-T at room temperature and then washed 3 times with TBS-T (1×-15′; 2×5′ each) and probed with the primary antibody for LDH or Bik in 5% BSA in TBS-T by incubation overnight at 4 deg C. with gentle shaking. The primary antibody for LDH was from Abcam ab2101; antigoat; at 1:1000 dilution. The primary antibody for Bik was from Cell Signaling #9942; antirabbit; at 1:1000 dilution. After incubation with primary antibodies, the membranes were washed 3 times with TBS-T (1×-15′; 2×5′ each) and probed with the secondary antibody (LDH antigoat; Jackson Laboratories) and Bik antirabbit; 1:10,000 dilution) for 1 h on the orbital tilting shaker at room temperature. After 1 h of incubation, the blots were washed 3 times with TBS-T (1×-15′; 2×5′ each) and incubated with ECF reagent for 5 minutes and then each blot scanned with 5100 Fuji Laser scanner at 25 uM resolution, 16 bit, green laser, at 400V and at 500 V.
The above blots were stripped by incubating for 30 minutes with methanol, followed by two 10 minute washes with TBS-T, then 30 minutes of incubation with stripping buffer at 50 deg C., and followed by two washes with 100 ml or more of TBS-T for 30′ each. The blots were activated with methanol for 5 seconds, washed with water for 5 minutes, and TBST for 15 minutes. The blots ere blocked for 1 hour with 5% blocking reagent in TBS-T at room temperature and then washed 3 times with TBS-T (1×-15′; 2×5′ each) and probed with the primary antibody for LDH in 5% BSA or 5% milk by incubation overnight at 4 deg C. with gentle shaking. The primary antibody for LDH 080309b1 (Abcam ab2101; antigoat) was at 1:1000 dilution in 5% BSA. The primary antibody for LDH 080309b2 (Abcam ab2101; antigoat) was at 1:1000 dilution in 5% milk. After incubation with primary antibodies, the membranes were washed 3 times with TBS-T (1×-15′; 2×5′ each) and probed with the secondary antibody (Jackson Immuno Research antigoat; 1:10,000 dilution; 305-055-045) for 1 h. […]

[2] = tested on: HepG2 (liver cancer) cells; test: PCR Diabetes Array; format: cell-based
Protocol: The treatment was initiated on 1×10^5 cells per well, following the procedure utilized in the PaCa2 cells (above, Examples 9-11). However, the total amount of RNA that was extracted from these samples was lower than expected. Reverse transcription is normally done using 1 μg of total RNA (determined by measurement at 260 nm). The maximum volume that can be used per reverse transcription is 8 μl.

HASMC cells = test: Extracellular acidification rate (ECAR), SeaHorse XF analyzer; format: cell-based, human; details: hyperglycemic HASMC cells in hypoxic conditions
Excerpt: Environmental influencers (e.g., MIMs or Epi-shifters) may also be identified by changes in cellular energetics. One example of the measurement of cellular energetics are the real-time measures of the consumption of molecular oxygen and/or the change in pH of the media of a cell culture. For example, the ability of a potential epi-shifter to modulate the metabolic state of a cell may be analyzed using, for example, the XF24 Analyzer (Seahorse, Inc.). This technology allows for real time detection of oxygen and pH changes in a monolayer of cells in order to evaluate the bioenergetics of a cell microenvironment. The XF24 Analyzer measures and compares the rates of oxygen consumption (OCR), which is a measure of aerobic metabolism, and extracellular acidification (ECAR), which is a measure of glycolysis, both key indicators of cellular energetics.
(SeaHorse Biosciences Inc, North Billerica, Mass.).
In this experiment, the OCR and extracellular acidification rate (ECAR) in normal cells lines were obtained in the presence and absence of CoQ10 to determine baseline values. It was observed that in its native nutrient environment, the basal OCR rates in normal cells lines are different, and are usually a function of the physiological roles of the cells in the body.
In Table 52 the measured baseline ECAR values (mpH/min) in HASMC were higher compared to that of HDFa. […]

COC1=C(OC)C(=O)C(C/C=C(\C)CC/C=C(\C)CC/C=C(\C)CC/C=C(\C)CC/C=C(\C)CC/C=C(\C)CC/C=C(\C)CC/C=C(\C)CC/C=C(\C)CCC=C(C)C)=C(C)C1=O [Q10, Coenzyme Q10]
Lactate Dehydrogenase Average Volume as a % ([1]; HepG2, 5g24-50, 2 Experiments): 64% | Lactate Dehydrogenase Average Volume as a % ([1]; HepG2, 5g24-100, 2 Experiments): 106% | Lactate Dehydrogenase Average Volume as a % ([1]; HepG2, 5g48-50, 2 Experiments): 112% | Lactate Dehydrogenase Average Volume as a % ([1]; HepG2, 5g48-100, 2 Experiments): 121% | Lactate Dehydrogenase Normalized Volume ([1]; HepG2, 5g-50, 24 h): 7900 | Lactate Dehydrogenase Normalized Volume ([1]; HepG2, 5g-50, 48 h): 5188 | Lactate Dehydrogenase Normalized Volume ([1]; HepG2, 5g-100, 24 h): 6616 | Lactate Dehydrogenase Normalized Volume ([1]; HepG2, 5g-100, 48 h): 7319 | Lactate Dehydrogenase Average Volume as a % ([1]; HepG2, 22G24-50, 2 Experiments): 121% | Lactate Dehydrogenase Average Volume as a % ([1]; HepG2, 22G24-100, 2 Experiments): 144% | Lactate Dehydrogenase Average Volume as a % ([1]; HepG2, 22G48-50, 2 Experiments): 95% | Lactate Dehydrogenase Average Volume as a % ([1]; HepG2, 22G48-100, 2 Experiments): 67% | Lactate Dehydrogenase Normalized Volume ([1]; HepG2, 22G-50, 24 h): 7550 | Lactate Dehydrogenase Normalized Volume ([1]; HepG2, 22G-50, 48 h): 6173 | Lactate Dehydrogenase Normalized Volume ([1]; HepG2, 22G-100, 24 h): 7124 | Lactate Dehydrogenase Normalized Volume ([1]; HepG2, 22G-100, 48 h): 9141 | Lactate Dehydrogenase Normalized Volume ([1]; PACA2, 5g-50, 24 h): 5068 | Lactate Dehydrogenase Normalized Volume ([1]; PACA2, 5g-50, 48 h): 2978 | Lactate Dehydrogenase Normalized Volume ([1]; PACA2, 5g-100, 24 h): 3675 | Lactate Dehydrogenase Normalized Volume ([1]; PACA2, 5g-100, 48 h): 2396 | Lactate Dehydrogenase Normalized Volume ([1]; PACA2, 22G-50, 24 h): 10218 | Lactate Dehydrogenase Normalized Volume ([1]; PACA2, 22G-50, 48 h): 2575 | Lactate Dehydrogenase Normalized Volume ([1]; PACA2, 22G-100, 24 h): 7158 | Lactate Dehydrogenase Normalized Volume ([1]; PACA2, 22G-100, 48 h): 3557 | Lactate Dehydrogenase (LDH) expression ([1]; cancer): reduced | Lactate Dehydrogenase (LDH) expression ([1]; normal cells): minimal effect | PPARGC1A mRNA downregulated ([2]; 100 μM Q10, 16 hours): approximately 20 fold | PRKAA1 mRNA downregulated ([2]; 100 μM Q10, 16 hours): ~6 fold | SNAP25 mRNA downregulated ([2]; 100 μM Q10, 16 hours): ~5 fold | PPARGC1A mRNA ([2]; 100 μM Q10, 48 hours): normalized or were slightly upregulated | PRKAA1 mRNA ([2]; 100 μM Q10, 48 hours): normalized or were slightly upregulated | SNAP25 mRNA downregulated ([2]; 100 μM Q10, 48 hours): approximately 2 fold | ECAR rates (HASMC cells): downward trend
